Calls of active or inactive are those of the source. The calls are words filed in the database; no cut-off is given here.
Key:
Salmonella typhimurium = experiment: Induction of beta-galactosidase production in Salmonella enterica Typhimurium MET844 after 4 hrs by beta-Gal reporter gene assay; assay type: functional, organism-based; conditions: Salmonella enterica subsp. enterica serovar Typhimurium
Vibrio harveyi = experiment: Induction of bioluminescence in Vibrio harveyi after 4 hrs by luminescence reporter assay; conditions: read-out: IC50 (the source's name)
Bacillus cereus = experiment: Inhibition of biofilm formation in Bacillus cereus at 8 uM after 24 hrs by 96-well polyvinylchloride microtiter plate assay; assay type: functional, organism-based

Activity (Salmonella typhimurium) | EC50 (Vibrio harveyi) [nM] | Compound | Activity (Bacillus cereus)
Active | – | CC(=O)C(=O)C(O)CO (stereo unspecified) | –
– | 2400 | CC(=O)OCC(OC(C)=O)C(=O)C(C)=O (stereo unspecified) | –
Active | 2100 | CC(=O)OC[C@H](OC(C)=O)C(=O)C(C)=O | Active
– | – | CC(=O)C(=O)[C@@H](O)CO | Active

— ChEMBL document CHEMBL1139061, “Ac2-DPD, the bis-(O)-acetylated derivative of 4,5-dihydroxy-2,3-pentanedione (DPD) is a convenient stable precursor of bacterial quorum sensing autoinducer AI-2” (Bioorg Med Chem Lett, 2007)
